The source of these data is article PMC12586182 (Frontiers in Oncology, 2025).

In one assay the target is FGFR1 (Homo sapiens, UniProt P11362). Nature of the assay: Kinase enzyme activity assay (mobility shift assay, Carna). The note with it: for Percentage inhibition of kinase enzyme activity: FGFR1, 1 µmol/L of BTK inhibitor.
The target of another assay is T1, BLK (Homo sapiens, UniProt P51451).
T1 construct: purchased Carna Biosciences
Kind of assay: Kinase panel profiling at 1 µmol/L (mobility shift assay, Carna). As to conditions: 1 µmol/L of BTK inhibitor. It counts as biochemical.

The target in the next assay is T2, ITK (Homo sapiens, UniProt Q08881).
T2 construct: purchased Carna Biosciences
T2 sequence (Q08881 1-620): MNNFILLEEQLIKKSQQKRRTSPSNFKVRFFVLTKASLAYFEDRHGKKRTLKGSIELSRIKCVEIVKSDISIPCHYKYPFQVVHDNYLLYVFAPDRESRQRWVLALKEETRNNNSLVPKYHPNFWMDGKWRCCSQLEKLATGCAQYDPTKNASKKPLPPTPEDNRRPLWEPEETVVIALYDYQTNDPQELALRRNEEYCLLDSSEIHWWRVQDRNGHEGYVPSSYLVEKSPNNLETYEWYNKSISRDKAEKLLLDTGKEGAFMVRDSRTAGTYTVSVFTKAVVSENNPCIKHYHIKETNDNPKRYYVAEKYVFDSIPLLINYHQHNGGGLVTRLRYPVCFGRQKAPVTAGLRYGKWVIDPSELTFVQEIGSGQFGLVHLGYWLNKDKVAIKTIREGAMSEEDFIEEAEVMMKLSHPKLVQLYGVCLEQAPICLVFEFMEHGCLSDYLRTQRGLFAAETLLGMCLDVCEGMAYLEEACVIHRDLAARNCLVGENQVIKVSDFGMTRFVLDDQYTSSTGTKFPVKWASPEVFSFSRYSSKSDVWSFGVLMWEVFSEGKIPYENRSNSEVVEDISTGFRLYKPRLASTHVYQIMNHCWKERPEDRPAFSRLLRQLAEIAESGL
The assay is described as above. It counts as biochemical. The note with it: 1 µmol/L of BTK inhibitor.

The next assay concerns SU-DHL-6. Kind of assay: Cell viability assay (ATPlite). Format: cell-based, human. As to conditions: SU-DHL-6 cell line; for IC50: 72 hours incubation. As to the method:
(§1) Intracellular ATP content was used as an indirect readout of cell number using the ATPlite 1Step bioluminescence assay (Revvity, Groningen, the Netherlands). Cells were seeded in 384-well plates at an optimized density to ensure unrestricted growth and maximal signal at the end of the experiment. After 24 hours of incubation, the starting cell number was determined by adding ATPlite to each well of a control plate and recording luminescence on an Envision multimode reader (Revvity, Waltham, MA, USA) ([4]). […] Vehicle-treated controls were included to determine maximal cell proliferation. […] After incubation for an additional 72 hours, the ATP content was measured in each well using ATPlite. The luminescent signal in inhibitor-treated wells was normalized to vehicle-treated control wells to determine the percentage viability at each concentration. Cell doublings were determined by relating the cell number of vehicle-treated controls to the starting cell number for each cell line. […] The quality of the complete assay was determined by a parallel test with doxorubicin on two cell lines. IC50 values were calculated by fitting a four-parameter logistic model to the percentage viability values using IDBS XLfit5 (IDBS, Guildford, United Kingdom). All curves were visually inspected and submitted to an F-test as implemented in IDBS XLfit5. […] When this dose range was too high in a certain cell line to allow for a reliable determination of the IC50, a new dilution series was prepared using a diluted stock solution and was used to retest the compound on the cell line.
(Cellular ATP, detected with luciferase, serves as a proxy for viable cell number.)

In another assay the test system is REC-1. Nature of the assay: Cell viability assay (ATPlite). Format: cell-based, human. As to conditions: REC-1 cell line; for IC50: 72 hours incubation. As to the method:
as §1

Another assay has as its target T3, CHK1 (Homo sapiens, UniProt O14757).
T3 construct: purchased Carna Biosciences
T3 sequence (O14757 1-476): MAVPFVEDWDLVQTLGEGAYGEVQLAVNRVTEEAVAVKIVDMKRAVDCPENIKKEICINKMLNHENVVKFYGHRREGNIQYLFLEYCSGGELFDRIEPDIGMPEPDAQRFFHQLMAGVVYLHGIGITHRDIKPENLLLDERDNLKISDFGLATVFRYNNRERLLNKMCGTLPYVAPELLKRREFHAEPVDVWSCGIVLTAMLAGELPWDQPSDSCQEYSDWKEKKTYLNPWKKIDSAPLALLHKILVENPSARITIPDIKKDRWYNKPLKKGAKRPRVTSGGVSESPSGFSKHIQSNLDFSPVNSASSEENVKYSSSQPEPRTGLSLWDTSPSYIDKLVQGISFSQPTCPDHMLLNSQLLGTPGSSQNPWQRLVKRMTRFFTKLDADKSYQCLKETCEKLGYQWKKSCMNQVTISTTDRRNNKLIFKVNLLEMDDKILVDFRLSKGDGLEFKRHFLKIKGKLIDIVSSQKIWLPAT
Kind of assay: Kinase panel profiling at 1 µmol/L (mobility shift assay, Carna). As to conditions: 1 µmol/L of BTK inhibitor. It counts as biochemical.

The target of the next assay is T4, PAK6 (Homo sapiens, UniProt Q9NQU5).
T4 construct: purchased Carna Biosciences
T4 sequence (Q9NQU5 whole entry): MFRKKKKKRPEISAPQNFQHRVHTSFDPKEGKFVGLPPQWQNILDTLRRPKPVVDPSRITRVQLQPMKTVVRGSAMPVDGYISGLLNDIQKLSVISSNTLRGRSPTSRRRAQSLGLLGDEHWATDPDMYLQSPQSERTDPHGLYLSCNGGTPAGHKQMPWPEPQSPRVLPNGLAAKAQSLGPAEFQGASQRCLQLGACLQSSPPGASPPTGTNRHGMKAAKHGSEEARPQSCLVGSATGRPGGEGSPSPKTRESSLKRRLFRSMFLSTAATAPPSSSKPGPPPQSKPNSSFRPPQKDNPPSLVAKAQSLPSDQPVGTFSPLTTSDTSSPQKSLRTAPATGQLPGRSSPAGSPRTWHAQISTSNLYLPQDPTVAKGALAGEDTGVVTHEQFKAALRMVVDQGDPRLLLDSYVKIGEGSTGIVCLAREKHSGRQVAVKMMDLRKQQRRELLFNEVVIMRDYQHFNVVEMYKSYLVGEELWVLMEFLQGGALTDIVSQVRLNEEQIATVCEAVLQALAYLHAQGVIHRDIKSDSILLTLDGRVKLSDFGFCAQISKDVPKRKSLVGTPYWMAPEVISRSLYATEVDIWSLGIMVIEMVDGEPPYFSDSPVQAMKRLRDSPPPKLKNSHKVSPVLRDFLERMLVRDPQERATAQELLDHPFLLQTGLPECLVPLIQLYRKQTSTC
Described as above. Format: biochemical. As to conditions: 1 µmol/L of BTK inhibitor.

For a further assay, the target named is T5, SPHK2 (Homo sapiens, UniProt Q9NRA0).
T5 construct: purchased Carna Biosciences
T5 sequence (Q9NRA0 1-654): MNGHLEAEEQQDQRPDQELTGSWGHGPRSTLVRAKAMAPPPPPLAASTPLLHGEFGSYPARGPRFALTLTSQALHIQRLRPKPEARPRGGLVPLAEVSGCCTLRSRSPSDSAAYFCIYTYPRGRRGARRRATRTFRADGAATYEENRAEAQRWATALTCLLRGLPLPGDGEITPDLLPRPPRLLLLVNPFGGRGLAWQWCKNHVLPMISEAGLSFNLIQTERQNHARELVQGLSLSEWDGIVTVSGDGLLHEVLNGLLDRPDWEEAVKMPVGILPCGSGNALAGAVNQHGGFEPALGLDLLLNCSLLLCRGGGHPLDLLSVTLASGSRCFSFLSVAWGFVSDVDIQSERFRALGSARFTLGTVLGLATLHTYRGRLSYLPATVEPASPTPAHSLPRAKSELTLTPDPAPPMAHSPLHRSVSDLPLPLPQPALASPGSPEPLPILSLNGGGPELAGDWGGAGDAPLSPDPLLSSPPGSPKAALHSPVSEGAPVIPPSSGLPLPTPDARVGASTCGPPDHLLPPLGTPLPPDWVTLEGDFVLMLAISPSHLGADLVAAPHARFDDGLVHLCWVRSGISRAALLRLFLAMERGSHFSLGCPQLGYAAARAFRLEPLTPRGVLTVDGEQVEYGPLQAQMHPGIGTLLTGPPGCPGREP
The description is as above. As to conditions: 1 µmol/L of BTK inhibitor. Format: biochemical.

A further assay has as its target T6, CK1γ3 (Homo sapiens, UniProt Q9Y6M4).
T6 construct: purchased Carna Biosciences
The assay is described as above. Format: biochemical. As to conditions: 1 µmol/L of BTK inhibitor.

Where [1] appears, read: Homo sapiens, Rec1, read-out: IC50.

Like-named read-outs stand apart in the source and are kept apart here.

T1 sequence (P51451 whole entry): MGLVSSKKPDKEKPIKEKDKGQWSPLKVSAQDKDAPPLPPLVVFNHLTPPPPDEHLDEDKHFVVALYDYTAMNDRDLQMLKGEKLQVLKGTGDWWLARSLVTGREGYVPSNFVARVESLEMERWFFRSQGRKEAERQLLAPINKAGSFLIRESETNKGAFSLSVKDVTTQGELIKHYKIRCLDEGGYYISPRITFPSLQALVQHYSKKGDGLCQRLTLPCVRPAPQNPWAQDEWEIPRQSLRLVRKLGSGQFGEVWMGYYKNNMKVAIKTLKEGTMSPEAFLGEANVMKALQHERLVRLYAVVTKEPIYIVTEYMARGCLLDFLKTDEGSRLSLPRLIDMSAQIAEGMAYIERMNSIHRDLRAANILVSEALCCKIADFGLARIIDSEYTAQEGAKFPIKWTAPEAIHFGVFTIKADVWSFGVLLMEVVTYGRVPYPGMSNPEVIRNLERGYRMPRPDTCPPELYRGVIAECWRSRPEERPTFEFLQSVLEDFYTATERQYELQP
Sequence of FGFR1 (P11362 22-822): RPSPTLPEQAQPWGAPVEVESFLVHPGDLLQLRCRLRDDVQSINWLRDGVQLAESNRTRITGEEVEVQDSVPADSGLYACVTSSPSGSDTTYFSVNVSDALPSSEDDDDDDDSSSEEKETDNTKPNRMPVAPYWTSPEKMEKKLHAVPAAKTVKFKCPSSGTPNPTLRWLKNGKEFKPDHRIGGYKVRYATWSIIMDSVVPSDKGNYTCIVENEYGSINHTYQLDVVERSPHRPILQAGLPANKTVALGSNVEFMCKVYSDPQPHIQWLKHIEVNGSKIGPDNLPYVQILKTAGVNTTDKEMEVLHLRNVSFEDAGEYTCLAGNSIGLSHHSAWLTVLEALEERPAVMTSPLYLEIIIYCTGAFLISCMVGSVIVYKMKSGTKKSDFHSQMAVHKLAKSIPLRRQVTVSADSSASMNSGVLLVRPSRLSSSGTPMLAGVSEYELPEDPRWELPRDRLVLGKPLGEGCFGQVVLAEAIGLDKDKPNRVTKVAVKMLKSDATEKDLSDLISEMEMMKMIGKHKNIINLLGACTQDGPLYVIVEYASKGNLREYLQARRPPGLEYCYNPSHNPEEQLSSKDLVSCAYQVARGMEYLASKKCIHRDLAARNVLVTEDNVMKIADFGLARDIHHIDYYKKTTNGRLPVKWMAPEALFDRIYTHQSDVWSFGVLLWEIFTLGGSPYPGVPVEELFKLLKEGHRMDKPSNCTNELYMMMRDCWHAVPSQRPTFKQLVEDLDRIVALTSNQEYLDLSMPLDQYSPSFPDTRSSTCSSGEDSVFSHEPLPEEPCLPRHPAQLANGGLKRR
T6 sequence (Q9Y6M4 whole entry): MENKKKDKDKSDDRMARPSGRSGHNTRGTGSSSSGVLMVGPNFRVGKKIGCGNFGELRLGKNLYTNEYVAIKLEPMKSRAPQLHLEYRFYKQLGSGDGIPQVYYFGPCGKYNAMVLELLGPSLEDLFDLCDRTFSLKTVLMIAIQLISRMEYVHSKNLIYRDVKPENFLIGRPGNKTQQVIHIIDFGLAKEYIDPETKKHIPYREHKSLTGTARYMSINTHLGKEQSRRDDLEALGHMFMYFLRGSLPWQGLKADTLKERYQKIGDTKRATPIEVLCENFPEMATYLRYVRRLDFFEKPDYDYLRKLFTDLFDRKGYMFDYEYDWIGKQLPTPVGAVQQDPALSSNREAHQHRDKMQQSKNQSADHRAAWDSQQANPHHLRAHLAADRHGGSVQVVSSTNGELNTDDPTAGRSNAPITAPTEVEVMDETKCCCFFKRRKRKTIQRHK

In the case of `C=CC(=O)N1CCC([C@@H]2CCNc3c(C(N)=O)c(-c4ccc(Oc5ccccc5)cc4)nn32)CC1` [zanubrutinib], the “Percentage inhibition of kinase enzyme activity” value (from here on “Percentage inhibition”) is -5.28% at FGFR1, 98.41% at BLK and -2.98% on ITK. Also, the IC50 was found to be 3.8 nM in the assay on SU-DHL-6 (Homo sapiens, SU-DHL-6, 72 h) and 3.1 nM with REC-1 (Homo sapiens, Rec1, 72 h).
Take `CC#CC(=O)N1CCC[C@H]1c1nc(-c2ccc(C(=O)Nc3ccccn3)cc2)c2c(N)nccn12` [acalabrutinib]: the “Percentage inhibition” value at FGFR1 is given as -2.28%; at CHK1 it was -6.98%; on PAK6, -8.74%; on BLK, 8.43%; at ITK it was 0.87%; on SPHK2 it was 6.90%. Further, the “Percentage inhibition” value at CK1γ3 was -14.72%. Moreover, the IC50 in the assay with SU-DHL-6 (Homo sapiens, read-out: IC50) was 3.1 nM; in the assay on REC-1 (setting [1]), 21 nM.
Regarding `COc1ccc(F)cc1C(=O)NCc1ccc(-c2nn([C@@H](C)C(F)(F)F)c(N)c2C(N)=O)cc1` [pirtobrutinib], the “Percentage inhibition” value at FGFR1 is 3.30%; at CHK1, 8.67%; on PAK6, 4.12%; on BLK, 30.87%; at ITK, 0.65%; at SPHK2, -12.42%. Also, at CK1γ3, the “Percentage inhibition” value is reported as -0.93%. Moreover, the IC50 with SU-DHL-6 (Homo sapiens, read-out: IC50) turned out to be 13 nM; in the assay on REC-1 (setting [1]), 38 nM. In addition, the “IC50 fold change of nemtabrutinib with the inhibitor” value in the assay on SU-DHL-6 was 43; in the assay on REC-1, 53.
Turning to `O=C(c1ccc(Oc2ccccc2)cc1Cl)c1c[nH]c2ncnc(N[C@@H]3CC[C@@H](CO)OC3)c12` [nemtabrutinib], the IC50 on FGFR1 is 134 nM; with SU-DHL-6 (Homo sapiens, SU-DHL-6, 72 h), 600 nM; in the assay on SU-DHL-6 it was 577 nM; with REC-1 (Homo sapiens, Rec1, 72 h), 2000 nM; in the assay on REC-1, 2040 nM. For the same compound, the “Percentage inhibition” value on FGFR1 was found to be 46.81%; at CHK1, 12.30%; on PAK6, 64.72%; on BLK it was 102.70%; on ITK, 8.66%; on SPHK2 it was 1.97%. Also, the “Percentage inhibition” value at CK1γ3 is recorded as 3.75%.
Consider `C=CC(=O)N1CCC[C@@H](n2nc(-c3ccc(Oc4ccccc4)cc3)c3c(N)ncnc32)C1` [ibrutinib], for which the “Percentage inhibition” value was 70.87% at FGFR1; 10.13% at CHK1; 8.60% at PAK6; 101.19% at BLK; 93.10% on ITK; 9.66% at SPHK2. Moreover, the “Percentage inhibition” value at CK1γ3 is recorded as 3.83%. The IC50 in the assay with SU-DHL-6 (Homo sapiens, read-out: IC50) is 12 nM; in the assay on REC-1 (setting [1]), 0.51 nM.

A word on the IC50: it is the concentration at which inhibition is half-maximal.
